# Data: ChEMBL document CHEMBL1201862, “PubChem BioAssay data set” (2004)
#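 Five compound concentrations were applied to cells in 96-well plates for 48 hours; endpoints were derived by simple linear interpolation of the resulting dose-response curve. GI50 is the concentration that inhibits growth by half.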 Active and inactive are the calls of the source. No stated cut-off is given here; in the data, active = GI50 up to about 1.1 µM and inactive = higher.
# Key:
# Assay in all cases: NCI anticancer screen, dose series, 48 h
# SNB-78 = test system: SNB-78
# OVCAR-5 = test system: OVCAR-5
# NCI-H522 = test system: NCI-H522
# OVCAR-8 = test system: OVCAR-8
# HCT-15 = test system: HCT-15
# HCT-116 = test system: HCT-116
# SK-MEL-2 = test system: SK-MEL-2
# DMS-273 = test system: DMS-273
# DMS-114 = test system: DMS-114
# LXFL 529 = test system: LXFL 529
# OVCAR-3 = test system: OVCAR-3
# HL-60 = test system: HL-60
# RXF 631 = test system: RXF 631
# NCI-H226 = test system: NCI-H226
# SR = test system: SR
# EKVX = test system: EKVX
# HOP-62 = test system: HOP-62
# SK-MEL-5 = test system: SK-MEL-5
# M19-MEL = test system: M19-MEL
# HOP-92 = test system: HOP-92
# COLO 205 = test system: COLO 205
# A498 = test system: A498
# SF-539 = test system: SF-539
# KM12 = test system: KM12
# UACC-62 = test system: UACC-62
# SF-268 = test system: SF-268
# M14 = test system: M14
# SW-620 = test system: SW-620
# SK-OV-3 = test system: SK-OV-3
# RPMI-8226 = test system: RPMI-8226
# ACHN = test system: ACHN
# IGROV-1 = test system: IGROV-1
# TK-10 = test system: TK-10
# CCRF-CEM = test system: CCRF-CEM
# KM-20L2 = test system: KM-20L2
# U-251 = test system: U-251
# CAKI-1 = test system: CAKI-1
# XF498 = test system: XF498
# SK-MEL-28 = test system: SK-MEL-28
# SNB-19 = test system: SNB-19
# NCI-H460 = test system: NCI-H460
# SN12C = test system: SN12C
# HT-29 = test system: HT-29
# MOLT-4 = test system: MOLT-4
# SNB-75 = test system: SNB-75
# 786-0 = test system: 786-0
# Malme-3M = test system: Malme-3M
# UO-31 = test system: UO-31
# DLD-1 = test system: DLD-1
# RXF 393 = test system: RXF 393
# A549 = test system: A549
# SF-295 = test system: SF-295
# K562 = test system: K562
# LOX IMVI = test system: LOX IMVI
# OVCAR-4 = test system: OVCAR-4
# UACC-257 = test system: UACC-257
# HCC 2998 = test system: HCC 2998
# HOP-18 = test system: HOP-18
# NCI-H23 = test system: NCI-H23
structure (smiles),measurement,setting,value
CCCCCCCCCCCCOC(=N)N1CCOCC1,GI50,SNB-78,6.59 µM (inactive)
same,GI50,OVCAR-5,14.9 µM (inactive)
same,GI50,NCI-H522,14.6 µM (inactive)
same,GI50,OVCAR-8,16.4 µM (inactive)
same,GI50,HCT-15,4.08 µM
same,GI50,HCT-116,8.39 µM (inactive)
same,GI50,SK-MEL-2,9.51 µM (inactive)
same,GI50,DMS-273,9.55 µM (inactive)
same,GI50,DMS-114,6.7 µM (inactive)
same,GI50,LXFL 529,4.06 µM (inactive)
same,GI50,OVCAR-3,14.9 µM (inactive)
same,GI50,HL-60,1.55 µM (inactive)
same,GI50,RXF 631,8.18 µM (inactive)
same,GI50,NCI-H226,20.7 µM (inactive)
same,GI50,SR,1.56 µM (inactive)
same,GI50,EKVX,12.9 µM (inactive)
same,GI50,HOP-62,17.3 µM (inactive)
same,GI50,SK-MEL-5,11 µM (inactive)
same,GI50,M19-MEL,5.22 µM (inactive)
same,GI50,HOP-92,1.32 µM (inactive)
same,GI50,COLO 205,1.75 µM (inactive)
same,GI50,A498,6.59 µM (inactive)
same,GI50,SF-539,0.982 µM (active)
same,GI50,KM12,5.53 µM (inactive)
same,GI50,UACC-62,9.77 µM (inactive)
same,GI50,SF-268,15 µM (inactive)
same,GI50,M14,3.95 µM (inactive)
same,GI50,SW-620,4.11 µM (inactive)
same,GI50,SK-OV-3,17 µM (inactive)
same,GI50,RPMI-8226,1.87 µM (inactive)
same,GI50,ACHN,14.2 µM (inactive)
same,GI50,IGROV-1,12.6 µM (inactive)
same,GI50,TK-10,16.8 µM (inactive)
same,GI50,CCRF-CEM,2.26 µM (inactive)
same,GI50,KM-20L2,3.43 µM (inactive)
same,GI50,U-251,9.46 µM (inactive)
same,GI50,CAKI-1,4.13 µM (inactive)
same,GI50,XF498,13.3 µM (inactive)
same,GI50,SK-MEL-28,12.2 µM (inactive)
same,GI50,SNB-19,18.5 µM (inactive)
same,GI50,NCI-H460,15 µM (inactive)
same,GI50,SN12C,4.39 µM (inactive)
same,GI50,HT-29,1.82 µM (inactive)
same,GI50,MOLT-4,2 µM (inactive)
same,GI50,SNB-75,13.7 µM (inactive)
same,GI50,786-0,14.1 µM (inactive)
same,GI50,Malme-3M,19 µM (inactive)
same,GI50,UO-31,13.5 µM (inactive)
same,GI50,DLD-1,3.3 µM (inactive)
same,GI50,RXF 393,8.99 µM (inactive)
same,GI50,A549,15.8 µM (inactive)
same,GI50,SF-295,17 µM (inactive)
same,GI50,K562,1.88 µM (inactive)
same,GI50,LOX IMVI,14.5 µM (inactive)
same,GI50,OVCAR-4,7.62 µM (inactive)
same,GI50,UACC-257,9.35 µM (inactive)
same,GI50,HCC 2998,10.5 µM (inactive)
same,GI50,HOP-18,2 µM (inactive)
same,GI50,NCI-H23,13.4 µM (inactive)
